From patent US6005007A, “Retinoids, methods for their production and use” (priority 1997, dated 1999)

Experiments:
[1] = system: RAR and RXR receptors; assay: Co-transfection assay, RAR and RXR subfamilies (summary in words); format: cell-based; settings: CV-1 cells
Experimental: Utilizing the "cis-trans" or "co-transfection" assay described by Evans et al., Science, 240:889-95 (May 13, 1988), the disclosure of which is herein incorporated by reference, the retinoid compounds of the present invention were tested and found to have strong, specific activity as either selective RXR agonists, or as pan-agonist activators of both RAR and RXR receptors. This assay is described in further detail in U.S. Pat. Nos. 4,981,784 and 5,071,773, the disclosures of which are incorporated herein by reference.
In the co-transfection assay, a cloned cDNA for an IR (e.g., human RARα, RARβ, RXRγ) under the control of a constitutive promoter (e.g., the SV 40 promoter) is introduced by transfection (a procedure to induce cells to take up foreign genes) into a background cell substantially devoid of endogenous IRs. This introduced gene directs the recipient cells to make the IR protein of interest. A second gene is also introduced (co-transfected) into the same cells in conjunction with the IR gene. This second gene, comprising the cDNA for a reporter protein, such as firefly luciferase (LUC), controlled by an appropriate hormone responsive promoter containing a hormone response element (HRE). This reporter plasmid functions as a reporter for the transcription-modulating activity of the target IR. Thus, the reporter acts as a surrogate for the products (mRNA then protein) normally expressed by a gene under control of the target receptor and its native hormone.
The co-transfection assay can detect small molecule agonists or antagonists of target IRs. Exposing the transfected cells to an agonist ligand compound increases reporter activity in the transfected cells. This activity can be conveniently measured, e.g., by increasing luciferase production, which reflects compound-dependent, IR-mediated increases in reporter transcription. […]. Increasing concentrations of a suspected antagonist will decrease the reporter signal (e.g., luciferase production). The co-transfection assay is therefore useful to detect both agonists and antagonists of specific IRs. […]

[2] = target: T1, RXRα (Homo sapiens, UniProt P19793); assay: Receptor binding, RXRα; settings: tritiated retinoid competition
T1 sequence (P19793 1-462): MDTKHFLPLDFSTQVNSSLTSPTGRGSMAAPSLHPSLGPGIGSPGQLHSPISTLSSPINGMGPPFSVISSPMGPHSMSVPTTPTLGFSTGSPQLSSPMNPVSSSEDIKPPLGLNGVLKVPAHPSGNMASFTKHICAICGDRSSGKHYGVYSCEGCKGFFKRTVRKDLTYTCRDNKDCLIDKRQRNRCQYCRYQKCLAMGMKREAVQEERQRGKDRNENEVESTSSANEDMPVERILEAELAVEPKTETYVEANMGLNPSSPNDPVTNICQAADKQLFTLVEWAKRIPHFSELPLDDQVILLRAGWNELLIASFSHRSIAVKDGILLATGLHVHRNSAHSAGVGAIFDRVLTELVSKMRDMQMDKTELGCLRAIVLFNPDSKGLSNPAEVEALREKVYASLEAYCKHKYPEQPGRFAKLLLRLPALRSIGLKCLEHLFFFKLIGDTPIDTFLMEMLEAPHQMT

[3] = target: T2, RARγ (Homo sapiens, UniProt P13631); assay: Co-transfection assay, RARγ agonist activity; format: cell-based; parameters: expressed in transfected cells; host or cells: CV-1 (African green monkey kidney fibroblasts); settings: CV-1 cells, luciferase reporter, read-out: RARγ Pot
T2 sequence (P13631 1-454): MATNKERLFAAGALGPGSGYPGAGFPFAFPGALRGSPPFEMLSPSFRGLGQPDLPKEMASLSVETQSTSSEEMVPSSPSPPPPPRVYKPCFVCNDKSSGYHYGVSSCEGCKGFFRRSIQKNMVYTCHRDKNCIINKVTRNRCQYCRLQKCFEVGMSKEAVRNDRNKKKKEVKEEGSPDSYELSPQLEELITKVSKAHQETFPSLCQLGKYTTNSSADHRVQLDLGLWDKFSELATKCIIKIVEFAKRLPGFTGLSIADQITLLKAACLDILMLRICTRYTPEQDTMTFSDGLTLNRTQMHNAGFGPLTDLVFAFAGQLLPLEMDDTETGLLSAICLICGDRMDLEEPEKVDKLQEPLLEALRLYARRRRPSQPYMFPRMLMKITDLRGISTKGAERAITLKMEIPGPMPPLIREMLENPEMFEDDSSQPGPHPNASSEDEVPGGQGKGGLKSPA

[4] = target: T1, RXRα; assay: Co-transfection assay, RXRα agonist activity; format: cell-based; parameters: expressed in transfected cells; host or cells: CV-1 (African green monkey kidney fibroblasts); settings: CV-1 cells, luciferase reporter, read-out: RXRα Pot

RXR selectivity / pan-agonist activity [1]	Kd [2] [µM]	EC50 [3] [µM]	EC50 [4] [µM]	Compound
extremely potent RXR selective compounds	0.006	> 10	0.034	CC(/C=C/CC1(c2cc(C(C)(C)C)cc3c2CCC3(C)C)CC1)=C\C(=O)O [Compound 107, (2E, 4E)-6-[1-(6-t-butyl-1,1-dimethyl-indan-4-yl)-cyclopropyl]-3-methyl hexadienoic acid]
extremely potent RXR selective compounds	0.041	> 10	0.063	CC(/C=C/CC1(c2ccc3c(c2)C(C)(C)CCC3(C)C)CCCC1)=C\C(=O)O [Compound 108, (2E, 4E)-6-[(5,5,8,8-Tetramethyl-5,6,7,8-tetrahydronaphtha-len-2-yl)cyclopentane-1-yl]-3-methyl hexadienoic acid]

Compound	RXR selectivity / pan-agonist activity [1]	Kd [2] [µM]	EC50 [3] [µM]	EC50 [4] [µM]
CC(/C=C/CC1(c2ccc3c(c2)C(C)(C)CCC3(C)C)CC1)=C\C(=O)O [Compound 101, (2E, 4E)-6-[1-(5,5,8,8-Tetramethyl-5,6,7,8-tetrahydronaphtha-len-2-yl)cyclopropanyl]-3-methyl hexadienoic acid]	pan-agonists that display superior potency profiles to that of the known pan-agonist compound 9-cis retinoic acid	0.002	0.024	0.013
